From patent publication US5459257A, “Sulfated oligoglycoside acylate and antiviral agent containing the same as active ingredient” (priority 1993, dated 1995) come the findings set out here.

Where only a bound is given, the exact number is not on record here.

One data set has as its system HIV. In words: anti-HIV activity, inhibition of HIV-induced cytopathicity in MT-4 cells (MTT method). It is filed as cell-based. Particulars: for EC50: HIV-infected MT-4 cells, MOI 0.01, 5 days, 37° C.; for S.I. (CC50/EC50): MT-4 cells, ratio of CC50 to EC50, 7200 min. The method, then:
A test compound having various concentrations were placed in a 96-well microtiter plate along with HIV-infected MT-4 cells (2.5×10^4 /well, MOI (multiplicity of infection): 0.01) immediately after infection thereof. In order to ascertain the cytotoxicty of the test compound with respect to MT-4 cells, mock-infected (non-infected) cells were cultured in an identical manner along with the test compound of various concentrations. After incubating for 5 days at 37° C. in a CO2 atmosphere, the number of living cells were determined by using MTT method. The anti-HIV activity was evaluated with the method written by R. Pauwels, et al. (R. Pauwels, et al., J. Virol Methods, 20, 309 to 321 (1988)).
The anti-HIV activity is shown in terms of EC50 (50% effective concentration) that is the concentration of a compound which inhibits 50% of HIV-induced cytopathicity in MT-4 cells, and the cytotoxity is shown in terms of CC50 (cytotoxic concentration) that is the concentration of a compound which reduces 50% of viability of mock-infected MT-4 cells. Selectivity Index (S.I.) is expressed by the ratio of CC50 to EC50 (CC50 /EC50).
On the technique in general: Damage to the host cells serves as the signal in cytopathic effect assays.

In a further data set the test system is MT-4 cells. In words: cytotoxicity in mock-infected MT-4 cells (MTT method). It is filed as cell-based. The method, then:
A test compound having various concentrations were placed in a 96-well microtiter plate along with HIV-infected MT-4 cells (2.5×10^4 /well, MOI (multiplicity of infection): 0.01) immediately after infection thereof. In order to ascertain the cytotoxicty of the test compound with respect to MT-4 cells, mock-infected (non-infected) cells were cultured in an identical manner along with the test compound of various concentrations. After incubating for 5 days at 37° C. in a CO2 atmosphere, the number of living cells were determined by using MTT method.
Selectivity Index (S.I.) is expressed by the ratio of CC50 to EC50 (CC50 /EC50).
For orientation: Formazan colour is commonly taken as a measure of viable cells.

Another data set concerns rabbit blood. The data set can be described thus: effects on blood clotting, whole blood clotting time. Particulars: rabbit whole blood, 120 U/ml, positive control.
Setting [1] is: mock-infected MT-4 cells, 5 days, 37° C.
The mark [2] stands for this setting: mock-infected MT-4 cells, 5 days, 37° C., 7200 min.

Protocol for rabbit blood: Sodium heparin (Kodama) used as positive control was diluted with saline at the concentration of 120 U/ml.
Japan White rabbits (supplier: Kitayama Labes), 4 months old, were used for this study.
Cardiopuncture was performed in a rabbit, and at when blood was started to be flowed into the syringe, the timer was made to start. The whole blood collected was carefully flowed into double glass tubes incubated. After putting the samples calmly for 3 minutes, the first tube was tilted gently every 30 seconds and the current of blood was observed. When blood in the first tube was clotted, the same operation was performed in the second tube. When the blood was clotted in the second tube, the timer was stopped, and this end point was recorded as whole blood clotting time.

The EC50 is the concentration needed to bring the measured effect to its halfway point. Read a high EC50 as a less potent agent. The term CC50 denotes the concentration giving 50% cytotoxicity. As to “Sulfated 4-n-heptylphenyl O-benzoyl-β-D-galactosyl-(1→4)-β-D-galactosyl-(1→4)-β-D-glucoside [Compound 18]”, in the data set with HIV, the EC50 is 14.5 µg/mL and the “S.I. (CC50/EC50)” value stood at 47. In the data set with MT-4 cells (setting [1]), this substance had a half-maximal cytotoxic concentration (CC50) of 634 µg/mL.
With “Sulfated dl-α-tocopheryl O-n-dodecanoyl-β-D-laminaripentaoside [Compound 39]”, in the data set on HIV, the EC50 was 15.3 µg/mL and the “S.I. (CC50/EC50)” value came out at 38. In the data set with MT-4 cells (setting [2]), this substance showed a cytotoxic concentration (CC50) of 586 µg/mL.
On to Heparin [reference compound], for which, in the data set on rabbit blood, the clotting time is over 60 min.
As for “Sulfated dl-α-tocopheryl O-n-butyryl-β-D-galactosyl-(1→4)-β-D-galactosyl-(1→4)-β-D-glucoside [Compound 42]”, in the data set on HIV, the EC50 worked out at 3.6 µg/mL and the “S.I. (CC50/EC50)” value is on record as 174. In addition, the CC50 with MT-4 cells (setting [1]) came out at 627 µg/mL.
Take “Sulfated dl-α-tocopheryl O-n-butyryl-β-D-laminaripentaoside [Compound 32]”: in the data set with HIV, the EC50 came to 6.4 µg/mL and the “S.I. (CC50/EC50)” value is recorded as 18. The CC50 in the data set with MT-4 cells (setting [2]) is 115 µg/mL.
“Sulfated dl-α-tocopheryl O-n-butyryl-β-D-galactosyl-(1→4)-β-D-galactosyl-(1→4)-β-D-glucoside [Compound 41]”: in the data set on HIV, the half-maximal effective concentration (EC50) came to 5.4 µg/mL and the “S.I. (CC50/EC50)” value turned out to be 109. Moreover, the half-maximal cytotoxic concentration (CC50) in the data set with MT-4 cells (setting [2]) was 586 µg/mL.
In the case of “Sulfated dl-α-tocopheryl O-benzoyl-β-D-laminaripentaoside [Compound 46]”, in the data set on HIV, the 50% effective concentration (EC50) was determined as 3.9 µg/mL and the “S.I. (CC50/EC50)” value was determined as 41. Further, the CC50 in the data set on MT-4 cells (setting [2]) came to 160 µg/mL.
On to “Sulfated 4-n-octyloxyphenyl O-octanoyl-β-D-laminaripentaoside [Compound 26]”, for which, in the data set with HIV, the EC50 was determined as 1.7 µg/mL and the “S.I. (CC50/EC50)” value is given as over 588. The CC50 in the data set with MT-4 cells (setting [1]) is listed as > 1,000 μg/ml.
On to “Sulfated 4-t-octylphenyl O-benzoyl-β-D-galactosyl-(1→4)-β-D-galactosyl-(1→4)-β-D-glucoside [Compound 17]”, for which, in the data set with HIV, the concentration giving a half-maximal response (EC50) worked out at 76.3 µg/mL and the “S.I. (CC50/EC50)” value is recorded as 6. In addition, the CC50 in the data set with MT-4 cells (setting [1]) was determined as 484 µg/mL.
As for “Sulfated dl-α-tocopheryl O-benzoyl-β-D-laminaripentaoside [Compound 44]”, in the data set on HIV, the EC50 was 0.52 µg/mL and the “S.I. (CC50/EC50)” value is 1,317. In the data set with MT-4 cells (setting [2]), this substance had a CC50 of 685 µg/mL.
As to “Sulfated dl-α-tocopheryl O-n-butyryl-β-D-laminaripentaoside [Compound 31]”, in the data set with HIV, the EC50 was determined as 1.1 µg/mL and the “S.I. (CC50/EC50)” value came to 195. For the same substance, in the data set on MT-4 cells (setting [2]), the CC50 came to 214 µg/mL.
Turning to “Sulfated 4-t-octylphenyl O-n-octanoyl-β-D-laminaripentaoside [Compound 27]”, in the data set on HIV, the EC50 was determined as 0.63 µg/mL and the “S.I. (CC50/EC50)” value was > 1,587. In addition, in the data set with MT-4 cells (human, mt-4 cells, 120 h), the CC50 is listed as > 1,000 μg/ml.
On to “Sulfated dl-α-tocopheryl O-2,4-difluorobenzoyl-β-D-galactosyl-(1→4)-β-D-galactosyl-(1→4)-β-D-glucoside [Compound 43]”, for which, in the data set on HIV, the concentration for a half-maximal effect (EC50) is 3.3 µg/mL and the “S.I. (CC50/EC50)” value was found to be 195. In the data set with MT-4 cells (setting [1]), this substance displayed a CC50 of 644 µg/mL.
In the same order, the values of “Sulfated 4-n-octyloxyphenyl O-4-fluorobenzoyl-β-D-laminaripentaoside [Compound 12]” are 16.1 µg/mL, 33 and 530 µg/mL.
In the same order, the values of “Sulfated 4-t-octylphenyl O-benzoyl-β-D-laminaripentaoside [Compound 14]” are 16.4 µg/mL, 119 and 557 µg/mL.
Turning to “Sulfated 4-n-octylphenyl O-benzoyl-β-D-laminaripentaoside [Compound 8]”, in the data set with HIV, the EC50 is 6.8 µg/mL and the “S.I. (CC50/EC50)” value was 82. Moreover, in the data set with MT-4 cells (setting [1]), the CC50 was determined as 556 µg/mL.
“Sulfated dl-α-tocopheryl O-n-dodecanoyl-β-D-laminaripentaoside [Compound 36]”: in the data set with HIV, the EC50 came out at 3.9 µg/mL and the “S.I. (CC50/EC50)” value stood at 83. In addition, the CC50 in the data set on MT-4 cells (setting [2]) stood at 323 µg/mL.
In the same order, the values of “Sulfated n-dodecyl O-4-fluorobenzoyl-β-D-laminaripentaoside [Compound 5]” are 1.3 µg/mL, 758 and 986 µg/mL.
For the substance “Sulfated dl-α-tocopheryl O-n-docosanoyl-β-D-laminaripentaoside [Compound 40]”, in the data set on HIV, the EC50 came to 20.6 µg/mL and the “S.I. (CC50/EC50)” value is recorded as 27. In addition, the CC50 with MT-4 cells (setting [1]) was 546 µg/mL.
On to “Sulfated n-dodecyl O-benzoyl-β-D-laminaripentaoside [Compound 2]”, for which, in the data set with HIV, the EC50 was 0.4 µg/mL and the “S.I. (CC50/EC50)” value is > 2,500. The CC50 in the data set with MT-4 cells (setting [2]) is > 1,000 μg/ml.
Regarding “Sulfated dl-α-tocopheryl O-n-octanoyl-β-D-laminaripentaoside [Compound 35]”, in the data set on HIV, the 50% effective concentration (EC50) was found to be 20.2 µg/mL and the “S.I. (CC50/EC50)” value is 26. Moreover, the CC50 in the data set with MT-4 cells (setting [2]) was 519 µg/mL.
As to “Sulfated 4-n-octylphenyl O-4-fluorobenzoyl-β-D-laminaripentaoside [Compound 9]”, in the data set on HIV, the EC50 was found to be 14.1 µg/mL and the “S.I. (CC50/EC50)” value turned out to be 35. This substance showed a CC50 in the data set with MT-4 cells (setting [1]) of 496 µg/mL.
For the substance “Sulfated dl-α-tocopheryl O-n-octanoyl-β-D-laminaripentaoside [Compound 34]”, in the data set on HIV, the concentration for a half-maximal effect (EC50) amounted to 16.0 µg/mL and the “S.I. (CC50/EC50)” value came out at 30. Further, the CC50 in the data set on MT-4 cells (setting [2]) worked out at 472 µg/mL.
On to “Sulfated n-dodecyl O-4-fluorobenzoyl-β-D-laminaripentaoside [Compound 4]”, for which, in the data set with HIV, the half-maximal effective concentration (EC50) was 1.7 µg/mL and the “S.I. (CC50/EC50)” value is 509. Besides, in the data set on MT-4 cells (setting [2]), the CC50 worked out at 866 µg/mL.
For “Sulfated dl-α-tocopheryl O-n-dodecanoyl-β-D-laminaripentaoside [Compound 37]”, in the data set with HIV, the EC50 came out at 25.1 µg/mL and the “S.I. (CC50/EC50)” value turned out to be 3. Besides, the cytotoxic concentration (CC50) with MT-4 cells (setting [2]) was 77.4 µg/mL.
Regarding “Sulfated dl-α-tocopheryl O-benzoyl-β-D-laminaripentaoside [Compound 45]”, in the data set with HIV, the EC50 turned out to be 1.8 µg/mL and the “S.I. (CC50/EC50)” value is 357. The substance also came in with a cytotoxic concentration (CC50) in the data set on MT-4 cells (setting [2]) of 642 µg/mL.
As for “Sulfated n-dodecyl O-4-fluorobenzoyl-β-D-laminaripentaoside [Compound 3]”, in the data set with HIV, the EC50 worked out at 2.0 µg/mL and the “S.I. (CC50/EC50)” value is 482. In the data set with MT-4 cells (human, mt-4 cells, 120 h), the CC50 was 964 µg/mL.
Take “Sulfated dl-α-tocopheryl O-n-butyryl-β-D-laminaripentaoside [Compound 30]”: in the data set on HIV, the EC50 is 0.59 µg/mL and the “S.I. (CC50/EC50)” value is listed as 1,124. Besides, in the data set with MT-4 cells (setting [1]), the 50% cytotoxic concentration (CC50) amounted to 663 µg/mL.
In the same order, the values of “Sulfated n-dodecyl O-2,4-difluorobenzoyl-β-D-laminaripentaoside [Compound 7]” are 2.1 µg/mL, over 476 and > 1,000 μg/ml.
For “Sulfated 4-n-octyloxyphenyl O-benzoyl-β-D-laminaripentaoside [Compound 11]”, in the data set on HIV, the EC50 was 4.7 µg/mL and the “S.I. (CC50/EC50)” value is on record as 119. This substance showed a cytotoxic concentration (CC50) in the data set on MT-4 cells (setting [1]) of 557 µg/mL.
With “Sulfated dl-α-tocopheryl O-n-dodecanoyl-β-D-laminaripentaoside [Compound 38]”, in the data set on HIV, the EC50 was found to be 18.7 µg/mL and the “S.I. (CC50/EC50)” value is on record as 4. For the same substance, the CC50 in the data set on MT-4 cells (setting [2]) was found to be 81.1 µg/mL.
“Sulfated dl-α-tocopheryl O-n-octanoyl-β-D-laminaripentaoside [Compound 33]”: in the data set on HIV, the EC50 was determined as 0.64 µg/mL and the “S.I. (CC50/EC50)” value is recorded as 998. Moreover, in the data set with MT-4 cells (setting [2]), the CC50 turned out to be 639 µg/mL.
